Experiment: xn = mol fraction of the nth substance listed

O=[N+]([O-])[O-].O=[N+]([O-])[O-].[Cd+2] + O
viscosity [mPa·s], 101.3 kPa
Settings	x1 = 0.0009	x1 = 0.0018	x1 = 0.00893	x1 = 0.0177	x1 = 0.02631	x1 = 0.03478	x1 = 0.05127	x1 = 0.06722	x1 = 0.08263
293.15 K	1.02	1.036	1.166	1.363	1.607	1.912	2.746	3.964	5.664
298.15 K	0.9069	0.9215	1.041	1.219	1.437	1.708	2.443	3.496	4.949
303.15 K	0.8129	0.8263	0.936	1.097	1.293	1.537	2.189	3.11	4.364
308.15 K	0.7336	0.7459	0.8471	0.994	1.171	1.391	1.975	2.789	3.882
313.15 K	0.6664	0.678	0.7712	0.9059	1.067	1.267	1.792	2.521	3.48
318.15 K	0.6085	0.6193	0.7057	0.8296	0.977	1.16	1.637	2.288	3.143
323.15 K	0.5582	0.568	0.6484	0.7627	0.8979	1.066	1.502	2.093	2.855

[Cl-].[Rb+] + O
310.15 K, 101 kPa
Settings	viscosity [mPa·s]
x1 = 0.000184	0.6947
x1 = 0.000842	0.6943
x1 = 0.002695	0.6937
x1 = 0.003302	0.6937
x1 = 0.003679	0.6938
x1 = 0.005197	0.6944
x1 = 0.005988	0.695

CC(C)(C)N + O=C1CCCCC1
298.15 K, 101 kPa
Settings	viscosity [mPa·s]
x2 = 0.0765	0.525
x2 = 0.157	0.607
x2 = 0.2421	0.702
x2 = 0.3319	0.787
x2 = 0.427	0.893
x2 = 0.5278	1.021
x2 = 0.6349	1.172
x2 = 0.7488	1.373
x2 = 0.8702	1.644

CCN(CC)CCO.Cl + OCC(O)CO
101 kPa, x1 = 0.333
Settings	viscosity [mPa·s]
296.97 K	433.4
298.15 K	513.1
302.02 K	339.9
303.15 K	351.5
306.82 K	263.5
308.15 K	251.3
312.13 K	195.5
313.15 K	182.9
317.31 K	153
318.15 K	138
322.61 K	110.5
323.15 K	104.2

BrC(Br)Br + OCCCl
viscosity [mPa·s], 101.3 kPa
Settings	x1 = 0.099	x1 = 0.198	x1 = 0.301	x1 = 0.396	x1 = 0.498	x1 = 0.595	x1 = 0.702	x1 = 0.801	x1 = 0.896
298.15 K	2.878	2.817	2.587	2.446	2.3	2.179	2.067	1.97	1.915
303.15 K	2.532	2.487	2.297	2.191	2.08	1.982	1.89	1.825	1.779
308.15 K	2.237	2.21	2.055	1.974	1.884	1.814	1.746	1.694	1.666

Reference: the CheMixHub viscosity set
